Data set [1] is described as follows: Antioxidant activity assessed as DPPH radical scavenging activity by spectrophotometry. The class given is physicochemical. For orientation: The DPPH test is a chemical assay of radical scavenging.
The test system of data set [2] is SMMC-7721. Kind of data set: Ratio of curcumin IC50 to compound IC50 for human SMMC7721 cells after 72 hrs by MTT assay. The format is functional. Background: Tetrazolium assays rely on reduction of a dye to a coloured formazan, in cell work by metabolically active cells.
Data set [3] in a line: Antioxidant activity assessed as ABTS radical scavenging activity by spectrophotometry. The format is physicochemical.
The subject of data set [4] is PC-3. Kind of data set: Ratio of curcumin IC50 to compound IC50 for human PC3 cells after 72 hrs by MTT assay. The class given is functional.
In data set [5] the test system is MCF7. Kind of data set: Ratio of curcumin IC50 to compound IC50 for human MCF7 cells after 72 hrs by MTT assay. The class given is functional.
Data set [6] is described as follows: Antioxidant activity assessed as superoxide radical scavenging activity after 5 mins by nitrotetrazolium blue chloride assay. The class given is physicochemical.
The nature of data set [7]: Antiproliferative activity against human PC3 cells after 72 hrs by MTT assay. The class given is functional, cell-based. Conditions: PC-3, 72 h.
A short description of data set [8]: Antioxidant activity assessed as ROO. radical scavenging activity by TRAP assay. The format is physicochemical.
Data set [9] has as its system MCF7. Kind of data set: Antiproliferative activity against human MCF7 cells after 72 hrs by MTT assay. Conditions: MCF7, 72 h. The class given is functional, cell-based.
Data set [10] is described as follows: Antiproliferative activity against human SMMC7721 cells after 72 hrs by MTT assay. The class given is functional, cell-based. Conditions: SMMC-7721, 72 h.
Data set [11] can be described thus: Drug metabolism in rat plasma after 24 hrs by HPLC analysis. Conditions: read-out: Drug metabolism. The class given is ADME, cell-free.
Data set [12] concerns Plasma. Kind of data set: Stability in rat plasma after 24 hrs by HPLC analysis. The format is ADME, cell-free.

For the compound `COc1cc(/C=C/C(=O)/C=C/c2ccc(O)c(OC)c2)ccc1O`, the IC50 was determined as 9.24 µM in data set [1]; 30.2 µM in [3]; 72.6 µM in data set [6]; 36.3 µM in data set [7]; 44.5 µM in [8]; 22.5 µM in data set [9]. In addition, in data set [10], inhibition was half-maximal at 18.4 µM (IC50). For the same compound, the “Ratio IC50” value in data set [2], in data set [4] and in data set [5] was 1.6 each time. Moreover, the metabolised at 24 h in data set [11] was 11.9%.
For the compound `CCOc1cc(/C=C/C(=O)/C=C/c2ccc(O)c(OCC)c2)ccc1O`, the IC50 in [1] stood at 50.1 µM; in [3], 128 µM; in [6], 193 µM; in data set [7], 51.4 µM; in [8] it was 128 µM; in [9], 26.6 µM. In data set [10], this compound showed an IC50 of 19 µM.
On to `COc1cc(/C=C/C(=O)/C=C/c2ccc(C)c(C)c2)ccc1O`, for which the IC50 in data set [1] came out at 41.5 µM; in data set [3], 103 µM; in [6], 178 µM; in [8], 136 µM; in [9], 21.7 µM; in data set [10], 23.4 µM.
Turning to `COc1ccc(/C=C/C(=O)/C=C/c2cc(OC)c(OC)c(OC)c2)cc1O`, the IC50 in [1] turned out to be 34.4 µM; in data set [3], 99.5 µM; in data set [6] it was 164 µM; in data set [7] it was 34.9 µM; in [8], 118 µM; in [9], 40.3 µM. In [10], this compound came in with an IC50 of 11.5 µM.
For `COc1ccc(/C=C/C(=O)/C=C/c2ccc(O)c(OC)c2)cc1O`, the IC50 in data set [1] came out at 46.3 µM; in data set [3] it was 105 µM; in data set [6], 169 µM; in data set [7], 61.3 µM; in data set [8] it was 123 µM; in data set [9], 56.5 µM. In data set [10], this compound registered an IC50 of 21.6 µM.
With `COc1cc(/C=C/C(=O)/C=C/c2cc(OC)c(O)c(OC)c2)ccc1O`, the IC50 in [1] came out at 28.7 µM; in data set [3], 85.7 µM; in data set [6] it was 124 µM; in data set [7], 70.2 µM; in data set [8], 96.4 µM; in [9], 28.9 µM. In addition, half-maximal inhibition in data set [10] (IC50) was put at 15.1 µM.
Consider `CCOc1cc(/C=C/C(=O)/C=C/c2ccc(O)c(OC)c2)ccc1O`, for which the concentration for half-maximal inhibition (IC50) in data set [1] came to 31.6 µM; in [3] it was 80.6 µM; in [6] it was 122 µM; in [7], 82.4 µM; in data set [8], 97.2 µM; in [9], 41.9 µM. The compound also displayed an IC50 in [10] of 27.3 µM. Besides, in data set [12], the Stability entry is on record as “Unstable”.
For the compound `COc1ccc(O)c(/C=C/C(=O)/C=C/c2ccc(C)c(C)c2)c1`, the half-maximal inhibitory concentration (IC50) in [1] was determined as 203 µM; in data set [3] it was 132 µM; in data set [6], 207 µM; in data set [7] it was 45.5 µM; in data set [8], 286 µM; in data set [9] it was 33.3 µM. The IC50 in [10] came to 23.4 µM. In addition, in [12], the Stability entry is given as “Unstable”.
Take `COc1ccc(O)c(/C=C/C(=O)/C=C/c2ccc(OC)c(OC)c2)c1`: the 50% inhibitory concentration (IC50) turned out to be 94.2 µM in [1]; 292 µM in [3]; 231 µM in data set [6]; 31.6 µM in data set [7]; 182 µM in [8]; 22.2 µM in data set [9]. In data set [10], this compound gave an IC50 of 20.8 µM. Further, the Stability result in data set [12] is given as “Unstable”.
`COc1ccc(O)c(/C=C/C(=O)/C=C/c2cc(OC)c(OC)c(OC)c2)c1`: the IC50 in data set [1] was determined as 94.6 µM; in data set [3] it was 114 µM; in data set [6], 214 µM; in data set [7] it was 39.9 µM; in data set [8] it was 184 µM; in [9], 40.7 µM. Besides, in data set [10], the IC50 was determined as 25.3 µM.
In the case of `COc1cc(/C=C/C(=O)/C=C/c2ccc(C)c(C)c2)cc(OC)c1O`, the IC50 in data set [1] turned out to be 32.6 µM; in data set [3], 113 µM; in data set [6], 156 µM; in [7] it was 25.3 µM; in [8] it was 113 µM; in data set [9], 52.8 µM. In [10], the midpoint of inhibition, the IC50, lay at 13.6 µM.
Consider `COc1ccc(/C=C/C(=O)/C=C/c2cc(OC)c(O)c(OC)c2)cc1OC`, for which the IC50 in data set [1] was determined as 13.5 µM; in [3] it was 36.3 µM; in data set [6] it was 80.9 µM; in data set [7], 36.9 µM; in data set [8] it was 47.8 µM; in [9] it was 9.11 µM. The same compound came in with an IC50 in data set [10] of 24.1 µM.
Consider `COc1ccc(/C=C/C(=O)/C=C/c2ccc(OC)c(OC)c2)cc1OC`, for which the IC50 in [1] is greater than 5630 µM; in data set [3], greater than 5630 µM; in data set [6] it was greater than 5630 µM; in data set [7] it was 21.4 µM; in [8] it was greater than 5630 µM; in data set [9] it was 39.9 µM. The midpoint of inhibition in [10], the IC50, lay at 14.4 µM.
Turning to `COc1cc(/C=C/C(=O)/C=C/c2cc(OC)c(OC)c(OC)c2)cc(OC)c1OC`, the 50% inhibitory concentration (IC50) is greater than 4820 µM in data set [1]; greater than 4820 µM in data set [3]; greater than 4820 µM in [6]; 42.1 µM in data set [7]; greater than 4820 µM in data set [8]; 13.9 µM in data set [9]. The IC50 in [10] came to 16.6 µM. Besides, in data set [12], the Stability result is given as “Unstable”.
For the compound `COc1ccc(/C=C/C(=O)/C=C/c2ccc(OC)c(O)c2)cc1O`, the half-inhibitory concentration (IC50) in [1] was found to be 92 µM; in [3], 177 µM; in data set [6], 204 µM; in [7], 97.3 µM; in [8], 193 µM; in [9] it was 70.4 µM. Also, in data set [10], the IC50 is 9.68 µM.
As for `COc1cc(/C=C/C(=O)/C=C/c2cc(OC)c(OC)c(OC)c2)cc(OC)c1O`, the IC50 was 28.1 µM in [1]; 75.1 µM in [3]; 117 µM in data set [6]; 23.7 µM in data set [7]; 70 µM in data set [8]; 43.6 µM in data set [9]. The same compound registered an IC50 in [10] of 10.9 µM.
Consider `COc1ccc(/C=C/C(=O)/C=C/c2ccc(OC)c(OC)c2)cc1O`, for which the IC50 stood at 19.7 µM in data set [1]; 91.3 µM in [3]; 119 µM in [6]; 53.1 µM in data set [7]; 82 µM in data set [8]; 67.1 µM in data set [9]. The compound further showed an IC50 in [10] of 39.4 µM.
As to `O=C1O[C@H]([C@@H](O)CO)C(O)=C1O` [ASCORBIC ACID], the IC50 is 45.4 µM in [1], 105 µM in [3], 167 µM in data set [6] and 102 µM in [8].
As for `COc1cc(/C=C/C(=O)CC(=O)/C=C/c2ccc(O)c(OC)c2)ccc1O` [CURCUMIN], the IC50 in [1] turned out to be 13.5 µM; in [3] it was 48.6 µM; in data set [6], 89.8 µM; in [7] it was 59 µM; in data set [8], 54.4 µM; in data set [9], 70.2 µM. This compound returned an IC50 in [10] of 39.4 µM. Besides, the metabolised at 24 h in data set [11] amounted to 55.3%.

The term IC50 denotes the concentration that gives 50% inhibition.

Source of the values: ChEMBL document CHEMBL3407482, “Synthesis and assessment of the antioxidant and antitumor properties of asymmetric curcumin analogues” (Eur J Med Chem, 2015).
